Values after ≈ are worked out from the molar mass of the structure shown. Values joined by “and” are separate entries in the source; they are usually repeats but may differ in a detail not shown here. Equal entries are not always repeated.
What was measured:
Experiment in all cases: ≥ marks a high value that may be exact or a test limit, other limits are often not marked, values filed in µg/mL are converted to µM
[1] = system: Escherichia coli ATCC 25922
[2] = system: Escherichia coli HB101
[3] = system: Escherichia coli DH5alpha
[4] = system: Micrococcus luteus NBRC 12708
[5] = system: Staphylococcus aureus JCM 2151
[6] = system: Escherichia coli NBRC 14237
[7] = system: Staphylococcus aureus NBRC 12732
[8] = system: Pseudomonas aeruginosa NBRC 12582
[9] = system: Salmonella enterica subsp. enterica serovar Enteritidis MH91989
[10] = system: Escherichia coli
[11] = system: Escherichia coli JJ2489
[12] = system: Salmonella enterica subsp. enterica serovar Infantis
[13] = system: Escherichia coli JW0013
[14] = system: Salmonella typhimurium SL1344
[15] = system: Escherichia coli MC1041
[16] = system: Escherichia coli J2210
[17] = system: Salmonella enterica subsp. enterica serovar Newport
[18] = system: Escherichia coli JW2778 ΔygdD
[19] = system: Escherichia coli JW0368 ΔsbmA
[20] = system: Salmonella enterica serovar Tennessee
[21] = system: Staphylococcus aureus KCTC 1621
[22] = system: Escherichia coli NCTC 10418
[23] = system: Staphylococcus aureus NCTC 12981
[24] = system: Staphylococcus aureus USA 100
[25] = system: Pseudomonas aeruginosa KCTC 1637
[26] = system: Escherichia coli KCTC 1682
[27] = system: Staphylococcus epidermidis KCTC 1917
[28] = system: Staphylococcus aureus ATCC 9144
[29] = system: Acinetobacter baumannii ATCC 17978
[30] = system: Escherichia coli NCTC 12923
[31] = system: Bacillus subtilis ATCC 13933
[32] = system: Candida albicans ATCC 90028
[33] = system: Staphylococcus aureus USA 300
[34] = system: Escherichia coli ATCC 700928
[35] = system: Klebsiella pneumoniae NCTC 13368
[36] = system: Pseudomonas aeruginosa PAO1
[37] = system: Candida parapsilosis ATCC 22019
[38] = system: Pseudomonas aeruginosa CMCCB 1010
[39] = system: Staphylococcus aureus NCTC 10788
[40] = system: Escherichia coli IS37#
[41] = system: Candida albicans NCYC 1467
[42] = system: Candida albicans ATCC 2002
[43] = system: Staphylococcus aureus ATCC 25923
[44] = system: Enterobacter cloacae ATCC 13047
[45] = system: Pseudomonas aeruginosa IS350#
[46] = system: Pseudomonas aeruginosa ATCC 27853
[47] = system: Escherichia coli IS117#
[48] = system: Klebsiella pneumoniae IS59#
[49] = system: Enterococcus faecalis ATCC 29212
[50] = system: Escherichia coli IS218#
[51] = system: Staphylococcus aureus IS10#
[52] = system: Staphylococcus aureus IS37#
[53] = system: Shigella dysenteriae
[54] = system: Klebsiella pneumoniae ATCC 700603

In the case of `CC[C@H](C)[C@H](NC(=O)[C@H](CCCN=C(N)N)NC(=O)[C@@H](N)CCCN=C(N)N)C(=O)N[C@@H](CCCN=C(N)N)C(=O)N1CCC[C@H]1C(=O)N[C@@H](CCCN=C(N)N)C(=O)N1CCC[C@H]1C(=O)N1CCC[C@H]1C(=O)N[C@@H](CCCN=C(N)N)C(=O)N[C@@H](CC(C)C)C(=O)N1CCC[C@H]1C(=O)N[C@@H](CCCN=C(N)N)C(=O)N1CCC[C@H]1C(=O)N[C@@H](CCCN=C(N)N)C(=O)N1CCC[C@H]1C(=O)N[C@@H](CS)C(=O)O` [RRIRPRPPRLPRPRPC], the MIC [1] is reported as 11.3 µM (≈ 22.9 µg/mL) and the MIC [2] is reported as 11.3 µM (≈ 22.9 µg/mL).
`CC[C@H](C)[C@H](NC(=O)[C@@H](N)Cc1ccccc1)C(=O)NCC(=O)N[C@@H](C)C(=O)N[C@@H](CC(C)C)C(=O)N[C@@H](CC(C)C)C(=O)N[C@@H](CCCN=C(N)N)C(=O)N1CCC[C@H]1C(=O)N[C@@H](C)C(=O)N[C@@H](CC(C)C)C(=O)N[C@@H](CCCCN)C(=O)N[C@@H](CC(C)C)C(=O)N[C@@H](CC(C)C)C(=O)N[C@@H](C)C(N)=O` [FIGALLRPALKLLA] gave an MIC [3] of at least 33.4 µM, an MIC [4] of 25 µM (≈ 37.4 µg/mL) and an MIC [5] of 6.48 µM (≈ 9.69 µg/mL). The MIC [6] was 12.5 µM (≈ 18.7 µg/mL), the MIC [7] was 12.5 µM (≈ 18.7 µg/mL) and the MIC [8] was at least 50 µM.
With `CC[C@H](C)[C@H](NC(=O)[C@@H]1CCCN1C(=O)[C@H](CCCN=C(N)N)NC(=O)[C@@H]1CCCN1C(=O)[C@@H]1CCCN1C(=O)[C@@H](NC(=O)[C@@H]1CCCN1C(=O)[C@H](CCCN=C(N)N)NC(=O)[C@@H]1CCCN1C(=O)[C@H](CC(C)C)NC(=O)[C@H](Cc1ccc(O)cc1)NC(=O)[C@H](CO)NC(=O)CNC(=O)[C@H](CCCCN)NC(=O)[C@H](CC(=O)O)NC(=O)[C@@H](N)C(C)C)[C@@H](C)O)C(=O)N[C@@H](Cc1ccc(O)cc1)C(=O)N[C@@H](CC(N)=O)C(=O)N[C@@H](CCCN=C(N)N)C(=O)N[C@@H](CC(N)=O)C(=O)O` [VDKGSYLPRPTPPRPIYNRN] the MIC [9] was 1.2 µM (≈ 2.81 µg/mL), the MIC [10] was > 0.416 µM and 0.6 µM and the MIC [11] was 0.6 µM (≈ 1.4 µg/mL). For the same compound, the MIC [12] was 0.6 µM (≈ 1.4 µg/mL), the MIC [13] was 0.15 µM (≈ 0.351 µg/mL) and the MIC [14] was 1.2 µM (≈ 2.81 µg/mL). For the same compound, the MIC [15] was 0.416 µM (≈ 0.974 µg/mL), the MIC [16] was 0.786 µM (≈ 1.84 µg/mL) and the MIC [17] was 0.416 µM (≈ 0.974 µg/mL). It also gave an MIC [18] of 0.6 µM (≈ 1.4 µg/mL), an MIC [19] of 2.4 µM (≈ 5.62 µg/mL) and an MIC [20] of 0.6 µM (≈ 1.4 µg/mL).
Work on `NC(=O)[C@H](CCCN=C(N)N)NC(=O)[C@H](Cc1c[nH]c2ccccc12)NC(=O)[C@H](CCCN=C(N)N)NC(=O)[C@@H](N)Cc1c[nH]c2ccccc12` [WRWR] yielded an MIC [21] of at least 45.5 µM, an MIC [22] of at least 182 µM and an MIC [23] of at least 182 µM. For the same compound, the MIC [24] was at least 50 µM, the MIC [25] was at least 45.5 µM and the MIC [26] was at least 45.5 µM. The MIC [27] was 11.4 µM (≈ 7.99 µg/mL).
`CC[C@H](C)[C@H](NC(=O)CNC(=O)[C@@H](N)CCCCN)C(=O)N[C@@H](CCCN=C(N)N)C(=O)NCC(=O)N[C@@H](Cc1ccc(O)cc1)C(=O)N[C@@H](CCCCN)C(=O)NCC(=O)NCC(=O)N[C@@H](Cc1ccc(O)cc1)C(=O)N[C@@H](CS)C(=O)N[C@@H](CCCCN)C(=O)NCC(=O)N[C@@H](C)C(=O)N[C@@H](Cc1ccccc1)C(=O)N[C@@H](CCCCN)C(=O)N[C@@H](CCC(N)=O)C(=O)N[C@H](C(=O)N[C@@H](CS)C(=O)N[C@@H](CCCCN)C(=O)N[C@@H](CS)C(=O)N[C@@H](Cc1ccc(O)cc1)C(=O)O)[C@@H](C)O` [KGIRGYKGGYCKGAFKQTCKCY] showed an MIC [28] of at least 52 µM, an MIC [29] of at least 52 µM and an MIC [30] of at least 52 µM. The MIC [31] was at least 48.8 µM, the MIC [32] was 1.9 µM (≈ 4.67 µg/mL) and the MIC [33] was at least 52 µM. It also gave an MIC [34] of at least 48.8 µM, an MIC [35] of at least 52 µM and an MIC [36] of over 52 µM.
In the case of `CC[C@H](C)[C@H](NC(=O)CNC(=O)[C@H](CO)NC(=O)[C@H](CC(C)C)NC(=O)[C@H](CC(C)C)NC(=O)CN)C(=O)N[C@@H](CC(C)C)C(=O)NCC(=O)N[C@@H](C)C(=O)NCC(=O)N[C@@H](CCCCN)C(=O)N[C@@H](CCCCN)C(=O)N[C@H](C(=O)N[C@H](C(=O)N[C@H]1CSSC[C@@H](C(=O)O)NC(=O)[C@H](CC(C)C)NC(=O)CNC(=O)[C@H](CO)NC(=O)[C@H](CC(C)C)NC(=O)CNC1=O)C(C)C)[C@@H](C)CC` [GLLSGILGAGKKIVCGLSGLC], the MIC [37] is reported as 1.28 µM (≈ 2.5 µg/mL), the MIC [1] is reported as 5.1 µM (≈ 9.99 µg/mL) and the MIC [38] is reported as 1.28 µM (≈ 2.5 µg/mL). It also gave an MIC [22] of at least 64 µM, an MIC [39] of 32 µM (≈ 62.6 µg/mL) and an MIC [40] of 2.55 µM (≈ 4.99 µg/mL). For the same compound, the MIC [41] was 32 µM (≈ 62.6 µg/mL), the MIC [42] was 0.51 µM (≈ 0.999 µg/mL) and the MIC [32] was 2.55 µM (≈ 4.99 µg/mL). It also gave an MIC [43] of 2.55 µM (≈ 4.99 µg/mL), an MIC [44] of 5.1 µM (≈ 9.99 µg/mL) and an MIC [45] of 5.1 µM (≈ 9.99 µg/mL). It also gave an MIC [46] of 2.55 µM (≈ 4.99 µg/mL), an MIC [47] of 5.1 µM (≈ 9.99 µg/mL) and an MIC [48] of 5.1 µM (≈ 9.99 µg/mL). For the same compound, the MIC [49] was 5.1 µM (≈ 9.99 µg/mL), the MIC [50] was 2.55 µM (≈ 4.99 µg/mL) and the MIC [51] was 10.2 µM (≈ 20 µg/mL). The MIC [52] was 10.2 µM (≈ 20 µg/mL), the MIC [53] was 2.55 µM (≈ 4.99 µg/mL) and the MIC [54] was 1.28 µM (≈ 2.5 µg/mL).

— DBAASP
